In patent publication US20140343049A1, “DIHYDROFURAN DERIVATIVES AS INSECTICIDAL COMPOUNDS” (SYNGENTA PARTICIPATIONS AG, priority 2011, published 2014):

Key:
Assay type in all cases: in vivo
[1] = system: Thrips tabaci (onion thrips); assay: Thrips tabaci sunflower leaf disc spray test; details: foliar, 168 h, sunflower leaf discs sprayed at 200 ppm, mixed ages, mortality after 7 days
Description: Sunflower leaf discs were placed on agar in a 24-well microtiter plate and sprayed with test solutions at an application rate of 200 ppm. […] After drying, the leaf discs were infested with a thrip population of mixed ages. After an incubation period of 7 days, samples were checked for mortality.

[2] = system: Plutella xylostella (diamond back moth); assay: Plutella xylostella L2 larvae test on artificial diet; details: 144 h, 200 ppm (concentration in well 18 ppm), 6 days, larval mortality and growth regulation
Description: 24-well microtiter plate (MTP) with artificial diet was treated with test solutions at an application rate of 200 ppm (concentration in well 18 ppm) by pipetting. After drying, the MTPs were infested with L2 larvae (7-12 per well). After an incubation period of 6 days, samples were checked for larval mortality and growth regulation.

[3] = system: Spodoptera littoralis (Egyptian cotton leafworm); assay: Spodoptera littoralis cotton leaf disc spray test; details: foliar, 72 h, cotton leaf discs sprayed at 200 ppm, 5 L1 larvae, mortality, feeding behavior, growth regulation 3 days after treatment
Text: Cotton leaf discs were placed on agar in a 24-well microtiter plate and sprayed with test solutions at an application rate of 200 ppm. After drying, the leaf discs were infested with 5 L1 larvae. The samples were checked for mortality, feeding behavior, and growth regulation 3 days after treatment (DAT).

[4] = system: Tetranychus urticae (two-spotted spider mite); assay: Tetranychus urticae bean leaf disc spray test; details: foliar, 192 h, bean leaf discs sprayed at 200 ppm, mixed ages, egg, larval and adult mortality 8 days later
Procedure, shortened: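 Leaf discs of bean on agar were sprayed at 200 ppm, dried, then infested with mixed-age mites. Egg, larval and adult mortality were scored 8 days later.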

[5] = system: Heliothis virescens (tobacco budworm); assay: Heliothis virescens egg test on artificial diet; details: 96 h, 200 ppm (concentration in well 18 ppm), eggs 0-24 h old, 4 days, egg mortality, larval mortality, growth regulation
Description: Eggs (0-24 h old) were placed in 24-well microtiter plate on artificial diet and treated with test solutions at an application rate of 200 ppm (concentration in well 18 ppm) by pipetting. After an incubation period of 4 days, samples were checked for egg mortality, larval mortality, and growth regulation.

[6] = system: Diabrotica balteata (corn root worm); assay: Diabrotica balteata L2 larvae test on artificial diet; details: 120 h, 200 ppm (concentration in well 18 ppm), 5 days, larval mortality and growth regulation
Procedure, shortened: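 Artificial diet treated with test solution at 200 ppm or 12.5 ppm application rate (in-well concentration stated as 18 ppm), dried, then infested with 6-10 L2 larvae per well. Larval mortality and growth regulation scored after 5 days.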

[7] = system: Spodoptera littoralis (Egyptian cotton leaf worm); assay: Spodoptera littoralis (systemic) test, compound in agar taken up by salad roots; details: 120 h, application rate 12.5 ppm, checked 5 days after infestation for mortality, repellent effect, feeding behavior, growth regulation
Text: Test compounds were applied by pipette into 24 well plates and mixed with agar. Salad seeds were placed on the agar and the multi well plate is closed by another plate which contains also agar. After 7 days the roots have absorbed the compound and the salad has grown into the lid plate. The salad leafs were now cut off into the lid plate. Spodoptera eggs were pipette through a plastic stencil on a humid gel blotting paper and the plate closed with it. The samples are checked for mortality, repellent effect, feeding behavior, and growth regulation 5 days after infestation. Application rate: 12.5 ppm
Test compounds were applied by pipette into 24 well plates and mixed with agar. Salad seeds were placed on the agar and the multi well plate is closed by another plate which contains also agar. After 7 days the roots have absorbed the compound and the salad has grown into the lid plate. The salad leafs were now cut off into the lid plate. Spodoptera eggs were pipette through a plastic stencil on a humid gel blotting paper and the plate closed with it. The samples are checked for mortality, repellent effect, feeding behavior, and growth regulation 5 days after infestation.

[8] = system: Myzus persicae (green peach aphid); assay: Myzus persicae (sachet) mixed population test; details: 120 h, sucrose solution, application rate 12.5 ppm, mortality 5 days after infestation
Text: Test compounds were applied by pipette into 24 well plates and mixed with Sucrose solution. The plates were closed with a stretched Parafilm. A plastic stencil with 24 holes is placed onto the plate and infested pea seedlings were placed directly on the Parafilm. The infested plate is closed with a gel blotting paper and another plastic stencil and then turned upside down. 5 days after infestation the samples were checked on mortality. Application rate: 12.5 ppm.

Cc1cc(C2=CC(c3cc(Cl)cc(Cl)c3)(C(F)(F)F)OC2)ccc1C(=O)NCC(=O)NCC(F)(F)F (stereo not drawn) [Compound A1, 4-[5-(3,5-Dichloro-phenyl)-5-trifluoromethyl-2,5-dihydro-furan-3-yl]-2-methyl-N-[(2,2,2-trifluoro-ethylcarbamoyl)-methyl]-benzamide]
≥ 80%: pest or weed control at 200 ppm [1] | pest or weed control at 200 ppm [2] | pest or weed control at 200 ppm [3] | pest or weed control at 200 ppm [4] | pest or weed control at 200 ppm [5] | pest or weed control at 200 ppm [6] | pest or weed control at 12.5 ppm [7] | pest or weed control at 12.5 ppm [8]

Cc1cc(C2=CC(c3cc(Cl)cc(Cl)c3)(C(F)(F)F)OC2)ccc1C(=O)NC1CSC1 (stereo not drawn) [Compound A2]
≥ 80%: pest or weed control at 200 ppm [1] | pest or weed control at 200 ppm [3] | pest or weed control at 200 ppm [4] | pest or weed control at 200 ppm [5] | pest or weed control at 12.5 ppm [8]

Cc1cc(C2=CC(c3cc(Cl)cc(Cl)c3)(C(F)(F)F)OC2)ccc1C(=O)NC1CS(=O)(=O)C1 (stereo not drawn) [Compound A15]
≥ 80%: pest or weed control at 200 ppm [1] | pest or weed control at 200 ppm [2] | pest or weed control at 200 ppm [3] | pest or weed control at 200 ppm [4] | pest or weed control at 200 ppm [5] | pest or weed control at 200 ppm [6] | pest or weed control at 12.5 ppm [7] | pest or weed control at 12.5 ppm [8]

CCN1OC[C@H](NC(=O)c2ccc(C3=CC(c4cc(Cl)cc(Cl)c4)(C(F)(F)F)OC3)cc2C)C1=O (stereo partly drawn) [Compound A16, 4-[5-(3,5-Dichloro-phenyl)-5-trifluoromethyl-2,5-dihydro-furan-3-yl]-N—((S)-2-ethyl-3-oxo-isoxazolidin-4-yl)-2-methyl-benzamide]
≥ 80%: pest or weed control at 200 ppm [1] | pest or weed control at 200 ppm [2] | pest or weed control at 200 ppm [3] | pest or weed control at 200 ppm [4] | pest or weed control at 200 ppm [5] | pest or weed control at 200 ppm [6] | pest or weed control at 12.5 ppm [7] | pest or weed control at 12.5 ppm [8]

Cc1cc(C2=CC(c3cc(Cl)cc(Cl)c3)(C(F)(F)F)OC2)ccc1C(=O)NCC1CSC1 (stereo not drawn) [Compound A78]
≥ 80%: pest or weed control at 200 ppm [1] | pest or weed control at 200 ppm [2] | pest or weed control at 200 ppm [3] | pest or weed control at 200 ppm [4] | pest or weed control at 200 ppm [5] | pest or weed control at 200 ppm [6] | pest or weed control at 12.5 ppm [8]

Cc1cc(C2=CC(c3cc(Cl)cc(Cl)c3)(C(F)(F)F)OC2)ccc1C(=O)NCCC1CSC1 (stereo not drawn) [Compound A82]
≥ 80%: pest or weed control at 200 ppm [1] | pest or weed control at 200 ppm [2] | pest or weed control at 200 ppm [3] | pest or weed control at 200 ppm [4] | pest or weed control at 200 ppm [5] | pest or weed control at 200 ppm [6] | pest or weed control at 12.5 ppm [8]

Cc1nc(C2=CC(c3cc(Cl)cc(Cl)c3)(C(F)(F)F)OC2)ccc1C(=O)NC1C[S+]([O-])C1 (stereo not drawn) [Compound C22]
≥ 80%: pest or weed control at 200 ppm [1] | pest or weed control at 200 ppm [2] | pest or weed control at 200 ppm [3] | pest or weed control at 200 ppm [4] | pest or weed control at 200 ppm [5] | pest or weed control at 200 ppm [6] | pest or weed control at 12.5 ppm [8]

Cc1cc(C2=CC(c3cc(Cl)cc(Cl)c3)(C(F)(F)F)OC2)ccc1C(=O)NCC(F)(F)F (stereo not drawn) [Compound D1]
≥ 80%: pest or weed control at 200 ppm [1] | pest or weed control at 12.5 ppm [7]

CCCCNC(=O)c1ccc(C2=CC(c3cc(Cl)cc(Cl)c3)(C(F)(F)F)OC2)cc1C (stereo not drawn) [Compound D3]
≥ 80%: pest or weed control at 200 ppm [1] | pest or weed control at 200 ppm [4] | pest or weed control at 12.5 ppm [8]

COCC(C)NC(=O)c1ccc(C2=CC(c3cc(Cl)cc(Cl)c3)(C(F)(F)F)OC2)cc1C (stereo not drawn) [Compound D4]
≥ 80%: pest or weed control at 200 ppm [1] | pest or weed control at 200 ppm [4] | pest or weed control at 12.5 ppm [8]

Cc1cc(C2=CC(c3cc(Cl)cc(Cl)c3)(C(F)(F)F)OC2)ccc1C(=O)NCC1CCCO1 (stereo not drawn) [Compound D8]
≥ 80%: pest or weed control at 200 ppm [1] | pest or weed control at 200 ppm [4] | pest or weed control at 12.5 ppm [7] | pest or weed control at 12.5 ppm [8]

Cc1cc(C2=CC(c3cc(Cl)cc(Cl)c3)(C(F)(F)F)OC2)ccc1C(=O)NCc1ccccc1 (stereo not drawn) [Compound D9]
≥ 80%: pest or weed control at 200 ppm [1] | pest or weed control at 200 ppm [2] | pest or weed control at 200 ppm [3] | pest or weed control at 200 ppm [4] | pest or weed control at 200 ppm [5] | pest or weed control at 12.5 ppm [8]

Cc1cc(C2=CC(c3cc(Cl)cc(Cl)c3)(C(F)(F)F)OC2)ccc1C(=O)NCc1ccccc1F (stereo not drawn) [Compound D10]
≥ 80%: pest or weed control at 200 ppm [1] | pest or weed control at 200 ppm [2] | pest or weed control at 200 ppm [3] | pest or weed control at 200 ppm [4] | pest or weed control at 200 ppm [5] | pest or weed control at 200 ppm [6] | pest or weed control at 12.5 ppm [8]

Cc1cc(C2=CC(c3cc(Cl)cc(Cl)c3)(C(F)(F)F)OC2)ccc1C(=O)NC1C[S+]([O-])C1 (stereo not drawn) [Compound D20]
≥ 80%: pest or weed control at 200 ppm [2] | pest or weed control at 200 ppm [6] | pest or weed control at 12.5 ppm [7]

Cc1cc(C2=CC(c3cc(Cl)cc(Cl)c3)(C(F)(F)F)OC2)ccc1C(=O)NC1CSC1 (stereo not drawn) [Compound D21]
≥ 80%: pest or weed control at 200 ppm [2] | pest or weed control at 200 ppm [6] | pest or weed control at 12.5 ppm [7]

Cc1cc(C2=COC(c3cc(Cl)cc(Cl)c3)(C(F)(F)F)C2)ccc1C(=O)N[C@@H]1CON(CC(F)(F)F)C1=O (stereo partly drawn) [Compound D25, 4-[2-(3,5-dichlorophenyl)-2-(trifluoromethyl)-3H-furan-4-yl]-2-methyl-N-[(4R)-3-oxo-2-(2,2,2-trifluoroethyl)isoxazolidin-4-yl]benzamide]
≥ 80%: pest or weed control at 200 ppm [1] | pest or weed control at 200 ppm [2] | pest or weed control at 200 ppm [3] | pest or weed control at 200 ppm [4] | pest or weed control at 200 ppm [5] | pest or weed control at 200 ppm [6] | pest or weed control at 12.5 ppm [8]

N#Cc1cc(C2=CO[C@@](c3cc(Cl)cc(Cl)c3)(C(F)(F)F)C2)ccc1-n1cncn1 [H1*, 5-[(2S)-2-(3,5-dichlorophenyl)-2-(trifluoromethyl)-3H-furan-4-yl]-2-(1,2,4-triazol-1-yl)benzonitrile]
≥ 80%: pest or weed control at 200 ppm [1] | pest or weed control at 200 ppm [2] | pest or weed control at 200 ppm [5] | pest or weed control at 200 ppm [6] | pest or weed control at 12.5 ppm [8]
